Where two headings read alike, the source gives them in different places. Starred links: 1 amine or outer side, 2 acyl side, 3 side chain; linkers in the order of their positions; H or OH if unused. Positions of bridges follow the written chain, without caps; N, C: chain ends. Non-standard residues stand in square brackets, D forms with d. Residues, ends and D or L forms follow the SMILES beside them. Chains are numbered I, II in the order given. Actinocin(9to1) = Cc1c2oc3c(C)ccc(C(=O)[*:1])c3nc-2c(C(=O)[*:2])c(N)c1=O; NMeV = CN[C@H](C(=O)O)C(C)C; Sar = CNCC(=O)O
Tests used:
tubulin = tubulin (Sus scrofa, UniProt P02550+P02554); assay: Cell-free tubulin polymerization assay; assay type: biochemical; details: for IC50: colchicine as positive control, read-out: IC50 against tubulin polymerization; for inhibitory effect against tubulin polymerization (in words): compared to colchicine or to the other derivatives of the series
Description: Tubulin polymerization assays were carried out using the tubulin polymerization assay kit (Cytoskeleton, Inc., Denver, CO, USA) following the instruction by the manufacturer.

MCF-7 cell line = assay: MTT cytotoxicity assay against the MCF-7 cell line; details: for IC50: read-out: MCF-7 Cell Line IC50 (μM) ± SD; for cytotoxicity against MCF-7 cells (in words): compared to actinomycin D
Description: The human breast cancer (MCF-7) cell line was maintained in culture flasks containing Dulbecco’s Modified Eagles Medium (DMEM). The media was supplemented with 1% antibiotics (100 µg/mL penicillin, 100 µg/mL streptomycin and 250 µg/L fungizone) and 10% heat-inactivated fetal bovine serum. […] The cells were sub-cultured every two-to-three days after the cells had formed a confluent monolayer.
The compounds were assessed at 0–100 µM. The control wells included vehicle treated cells exposed to 2% DMSO and the positive control, actinomycin D, with concentrations ranging between 5, 10, 25, and 50, and 100 µM. The microtitre plates were incubated for 48 h. After the 48 h incubation period the MTT reagent (10 µL) was added to a final concentration of 0.5 mg/mL and the plate was further incubated for another 4 h. After 4 h, 100 µL of the solubilisation solution was added to each well and the plate was allowed to stand overnight. Subsequently, the absorbance of the color complex was read at 550 nm with a reference wavelength set at 650 nm using a BIO-TEK Power-Wave XS multi-well plate reader (BioTech Instruments, Midrand, South Africa). The IC50 values of the compounds were calculated using OriginPro software (OriginLab Corporation, Northampton, MA, USA).

Caspase-3 (Asp175) = assay: Caspase-3 activation colorimetric assay in MCF-7 cells; assay type: cell-based, human; details: 1 µM, 24 h, compared to 3i and actinomycin D
Description: Activation of caspases (caspase-2, 3, 6, 7, 8, 9, and 10) is a major biochemical feature that plays a central role in the morphological changes associated with apoptosis. Consequently, we evaluated compounds 3b and 3i for their potential to induce caspase-3 activation in the MCF-7 cells.
Caspase-3 activity was detected by means of Caspase-3 Colorimetric Assay Kit (Abcam, Cambridge, MA, USA). The cells were cultured in 24 well plates and treated for 24 h with 3b or 3i at a concentration of 1 µM against actinomycin D (1 µM) as a reference standard, respectively. The cells were then washed with PBS buffer and lysed on ice. The experiments were carried out according to the manufacturer’s instructions. Optical density was measured at absorbance of 450 nm using the BioTek microplate reader. The concentration of active Caspase-3 (Asp 175) were measured in duplicates and interpolated from the active caspase-3 (Asp 175) standard curve and corrected for sample dilution.

EGFR-TK = target: T1, EGFR-TK (Homo sapiens, UniProt P00533); assay: EGFR-TK phosphorylation inhibition assay (ELISA); assay type: biochemical; details: purified EGFR
T1 construct: purchased Sigma-Aldrich, Bradford, UK
Description: The procedure was carried out according to the manufacturer’s protocol and referring to reported instructions as described in our previous investigation.

MCF-7 cells = assay: Annexin V-Cy3 SYTOX staining apoptosis assay (flow cytometry); assay type: cell-based, human; details: for viability at 1 µM: Homo sapiens, read-out: %Viable Cells (Q3)
Description: Several distinctive modes of cell death such as apoptosis, necrosis, autophagy, and cornification exist and are characterized by differences in their morphology and their biochemical changes. […] We employed the Annexin V-Cy3 SYTOX apoptosis assay kit to distinguish between viable cells (Annexin V-negative; PI-negative), early apoptotic cells (Annexin V-positive; PI-negative), late apoptotic cells (Annexin V-positive; PI-positive) and unviable or necrotic cells (Annexin V-negative; PI-positive). The cells were analyzed by the flow cytometry, which is an important tool to evaluate the molecular and morphological events that take place during cell death and cell proliferation.
The percentage population of apoptotic cells were determined using Annexin V–Cy3 SYTOX apoptosis detection kit (Abcam, Milton, Cambridge, UK) according to the manufacturer’s instructions. […] The cells were incubated for 48 h and then stained with Annexin V–Cy3 SYTOX green dye. The cells were analyzed using BD Biosciences FACSAria III flow cytometer (BD Biosciences, San Jose, CA, USA).

[1] = MTT, 48 h incubation, three individual experiments

T1 sequence (P00533 25-1210): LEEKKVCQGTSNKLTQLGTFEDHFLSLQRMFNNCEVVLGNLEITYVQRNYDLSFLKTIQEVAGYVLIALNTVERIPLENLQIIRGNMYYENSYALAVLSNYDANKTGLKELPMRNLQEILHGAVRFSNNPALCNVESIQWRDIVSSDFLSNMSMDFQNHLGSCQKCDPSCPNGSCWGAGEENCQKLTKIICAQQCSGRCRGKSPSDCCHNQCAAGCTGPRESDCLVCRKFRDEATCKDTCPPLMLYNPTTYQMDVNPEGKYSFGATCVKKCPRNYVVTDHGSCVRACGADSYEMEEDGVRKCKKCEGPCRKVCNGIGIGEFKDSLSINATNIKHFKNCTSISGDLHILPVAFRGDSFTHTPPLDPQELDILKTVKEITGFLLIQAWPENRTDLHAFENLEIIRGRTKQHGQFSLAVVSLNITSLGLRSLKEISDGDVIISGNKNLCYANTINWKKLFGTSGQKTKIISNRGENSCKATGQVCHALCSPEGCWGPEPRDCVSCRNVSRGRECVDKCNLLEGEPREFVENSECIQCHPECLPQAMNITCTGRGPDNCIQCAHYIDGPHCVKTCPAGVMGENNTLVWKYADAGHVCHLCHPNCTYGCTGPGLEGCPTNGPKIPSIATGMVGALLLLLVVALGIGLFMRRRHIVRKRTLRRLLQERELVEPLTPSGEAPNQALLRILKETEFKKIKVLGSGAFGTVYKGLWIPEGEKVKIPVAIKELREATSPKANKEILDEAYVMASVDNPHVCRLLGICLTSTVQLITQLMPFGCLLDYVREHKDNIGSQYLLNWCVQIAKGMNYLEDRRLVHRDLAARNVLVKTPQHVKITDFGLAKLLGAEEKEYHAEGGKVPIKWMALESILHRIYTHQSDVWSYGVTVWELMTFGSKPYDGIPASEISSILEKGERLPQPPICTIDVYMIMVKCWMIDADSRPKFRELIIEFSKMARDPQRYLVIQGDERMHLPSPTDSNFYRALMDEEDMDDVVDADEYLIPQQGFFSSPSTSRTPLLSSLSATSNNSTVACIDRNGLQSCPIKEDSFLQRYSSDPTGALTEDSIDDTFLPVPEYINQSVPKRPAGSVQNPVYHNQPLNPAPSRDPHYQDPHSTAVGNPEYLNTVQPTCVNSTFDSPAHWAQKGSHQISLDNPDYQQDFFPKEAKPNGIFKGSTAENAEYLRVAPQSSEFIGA
Sequence of tubulin (P02550 whole entry): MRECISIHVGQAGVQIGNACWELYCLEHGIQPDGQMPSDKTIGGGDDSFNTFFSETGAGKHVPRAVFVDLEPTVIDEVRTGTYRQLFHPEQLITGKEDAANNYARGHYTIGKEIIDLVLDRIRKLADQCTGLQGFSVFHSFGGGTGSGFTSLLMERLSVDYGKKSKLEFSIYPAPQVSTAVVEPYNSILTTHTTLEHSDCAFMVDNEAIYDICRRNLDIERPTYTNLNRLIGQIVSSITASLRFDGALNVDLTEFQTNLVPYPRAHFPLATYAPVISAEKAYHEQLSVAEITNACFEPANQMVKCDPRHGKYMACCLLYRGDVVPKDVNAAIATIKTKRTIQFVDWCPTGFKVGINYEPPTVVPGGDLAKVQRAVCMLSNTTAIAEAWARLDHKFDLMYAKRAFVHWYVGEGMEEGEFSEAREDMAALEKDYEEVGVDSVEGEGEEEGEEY
Sequence of tubulin (P02554 whole entry): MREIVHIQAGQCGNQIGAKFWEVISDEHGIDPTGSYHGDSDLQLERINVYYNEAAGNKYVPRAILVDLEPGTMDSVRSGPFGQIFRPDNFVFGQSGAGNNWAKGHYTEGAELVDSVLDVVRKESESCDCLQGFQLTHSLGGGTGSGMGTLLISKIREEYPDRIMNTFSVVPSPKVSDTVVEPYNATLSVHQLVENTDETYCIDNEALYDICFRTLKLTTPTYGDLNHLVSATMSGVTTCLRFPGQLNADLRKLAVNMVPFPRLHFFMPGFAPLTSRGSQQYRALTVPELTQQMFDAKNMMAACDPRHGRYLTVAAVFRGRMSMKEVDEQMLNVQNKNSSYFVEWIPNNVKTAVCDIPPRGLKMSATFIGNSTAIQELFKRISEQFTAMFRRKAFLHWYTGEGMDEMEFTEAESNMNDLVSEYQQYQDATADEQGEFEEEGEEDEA

Row | IC50 (tubulin) [µM] | melting point [°C] | Structure (SMILES) | IC50 (MCF-7 cell line; Homo sapiens, MCF7, 48 h) [µM] | other results
1 | 15.6 |  | O=C(/C=C/c1ccccc1)c1cc(Br)cc2cc(-c3ccccc3)oc12 [3a] | 48 ± 2.1 | 
2 | 26.5 |  | O=C(/C=C/c1ccc(F)cc1)c1cc(Br)cc2cc(-c3ccccc3)oc12 [3b] | 0.55 ± 0.24 | caspase-3 activation (in words) (Caspase-3 (Asp175)): does not induce significant caspase activation; IC50 (EGFR-TK): 0.17 ± 0.03 µM; viability at 1 µM (MCF-7 cells; MCF7, MCF-7 cells, 1 µM, 48 h): 23.3%; %Early Apoptosis (Q4) (MCF-7 cells; MCF-7 cells, 1 µM, 48 h): 1.5%; %Late Apoptosis (Q2) (MCF-7 cells; MCF-7 cells, 1 µM, 48 h): 72%; %Necrosis (Q1) (MCF-7 cells; MCF-7 cells, 1 µM, 48 h): 3.2%; induction of apoptosis (in words) (MCF-7 cells; MCF-7 cells, 1 µM, 48 h, compared to 3i and actinomycin D): induced increased apoptosis
3 | 26.4 | 242 to 245 | O=C(/C=C/c1ccc(Cl)cc1)c1cc(Br)cc2cc(-c3ccccc3)oc12 [3c] | > 100 | 
4 | 34.5 | 206 to 208 | COc1ccc(/C=C/C(=O)c2cc(Br)cc3cc(-c4ccccc4)oc23)cc1 [3d] | 22.8 ± 0.86 | 
5 |  |  | O=C(/C=C/c1ccc(OC(F)(F)F)cc1)c1cc(Br)cc2cc(-c3ccccc3)oc12 [3e] | 0.59 ± 0.21 | 
6 | 23.3 | 224 to 226 | O=C(/C=C/c1ccccc1)c1cc(Br)cc2cc(-c3ccc(F)cc3)oc12 [3f] | 35.8 ± 1.2 | 
7 | 13.2 | 239 to 242 | O=C(/C=C/c1ccc(F)cc1)c1cc(Br)cc2cc(-c3ccc(F)cc3)oc12 [3g] | 48.6 ± 2.1 | cytotoxicity against MCF-7 cells (in words) (MCF-7 cell line; MTT): reduced cytotoxicity
8 | 1.33 | 231 to 233 | O=C(/C=C/c1ccc(Cl)cc1)c1cc(Br)cc2cc(-c3ccc(F)cc3)oc12 [3h] | 54.16 ± 0.4 | cytotoxicity against MCF-7 cells (in words) (MCF-7 cell line; MTT): reduced cytotoxicity
9 | 5.51e-05 |  | COc1ccc(/C=C/C(=O)c2cc(Br)cc3cc(-c4ccc(F)cc4)oc23)cc1 [3i, (E)-1-(5-Bromo-2-(4-fluorophenyl)benzofuran-7-yl)-3-(4-methoxyphenyl)prop-2-en-1-one] | 0.000355 | IC50 (EGFR-TK): 0.09 ± 0.03 µM; viability at 1 µM (MCF-7 cells; MCF7, MCF-7 cells, 1 µM, 48 h): 32.2%; %Early Apoptosis (Q4) (MCF-7 cells; MCF-7 cells, 1 µM, 48 h): 3.1%; %Late Apoptosis (Q2) (MCF-7 cells; MCF-7 cells, 1 µM, 48 h): 61.7%; %Necrosis (Q1) (MCF-7 cells; MCF-7 cells, 1 µM, 48 h): 3.1%
10 | 77 | 243 to 245 | O=C(/C=C/c1ccccc1)c1cc(Br)cc2cc(-c3cccc(F)c3)oc12 [3k] | 23 ± 0.38 | 
11 | 3.98 | 266 to 267 | O=C(/C=C/c1ccc(F)cc1)c1cc(Br)cc2cc(-c3cccc(F)c3)oc12 [3l] | > 100 | cytotoxicity against MCF-7 cells (in words) (MCF-7 cell line; MTT): inactive
12 | 10.2 | 234 to 235 | O=C(/C=C/c1ccc(Cl)cc1)c1cc(Br)cc2cc(-c3cccc(F)c3)oc12 [3m] | 14.8 ± 0.33 | 
13 |  | 221 to 222 | COc1ccc(/C=C/C(=O)c2cc(Br)cc3cc(-c4cccc(F)c4)oc23)cc1 [3n] | 39.2 ± 0.42 | inhibitory effect against tubulin polymerization (in words) (tubulin): Moderate activity
14 | 0.000176 | 186 to 187 | O=C(/C=C/c1ccc(OC(F)(F)F)cc1)c1cc(Br)cc2cc(-c3cccc(F)c3)oc12 [3o, (E)-1-(5-Bromo-2-(3-fluorophenyl)benzofuran-7-yl)-3-(4-(trifluoromethoxy)phenyl)prop-2-en-1-one] | 7.87 ± 0.25 | IC50 (EGFR-TK): 0.12 ± 0.04 µM
15 | 0.0937 | 218 to 219 | O=C(/C=C/c1ccccc1)c1cc(Br)cc2cc(-c3cccc(Cl)c3)oc12 [3p] | 12.6 ± 0.23 | inhibitory effect against tubulin polymerization (in words) (tubulin): significant inhibitory effects; IC50 (EGFR-TK): 0.17 ± 0.06 µM
16 | 51.3 | 232 to 233 | O=C(/C=C/c1ccc(F)cc1)c1cc(Br)cc2cc(-c3cccc(Cl)c3)oc12 [3q] | 23.8 ± 0.29 | 
17 | 34.5 | 257 to 258 | O=C(/C=C/c1ccc(Cl)cc1)c1cc(Br)cc2cc(-c3cccc(Cl)c3)oc12 [3r] | 66.8 ± 0.84 | 
18 | 0.71 | 214 to 215 | COc1ccc(/C=C/C(=O)c2cc(Br)cc3cc(-c4cccc(Cl)c4)oc23)cc1 [3s] | 2.69 ± 0.23 | inhibitory effect against tubulin polymerization (in words) (tubulin): significant inhibitory effects
19 |  | 255 to 256 | COc1ccc(-c2cc3cc(Br)cc(C(=O)/C=C/c4ccccc4)c3o2)cc1 [3u] | 48.96 ± 0.3 | 
20 | 0.0162 | 241 to 242 | COc1ccc(-c2cc3cc(Br)cc(C(=O)/C=C/c4ccc(F)cc4)c3o2)cc1 [3v] | 28.4 ± 0.46 | IC50 (EGFR-TK): 0.15 ± 0.02 µM
21 | 48.4 | 209 to 210 | COc1ccc(-c2cc3cc(Br)cc(C(=O)/C=C/c4ccc(Cl)cc4)c3o2)cc1 [3w] | 30.6 ± 0.35 | 
22 | 67.4 | 216 to 217 | COc1ccc(/C=C/C(=O)c2cc(Br)cc3cc(-c4ccc(OC)cc4)oc23)cc1 [3x] | 69.1 ± 0.76 | 
23 | 78 | 187 to 188 | COc1ccc(-c2cc3cc(Br)cc(C(=O)/C=C/c4ccc(OC(F)(F)F)cc4)c3o2)cc1 [3y] | 43.17 ± 0.28 | 
24 |  |  | Cc1c2oc3c(C)ccc(C(=O)N[C@@H]4C(=O)N[C@H](C(C)C)C(=O)N5CCC[C@H]5C(=O)N(C)CC(=O)N(C)[C@@H](C(C)C)C(=O)O[C@@H]4C)c3nc-2c(C(=O)N[C@@H]2C(=O)N[C@H](C(C)C)C(=O)N3CCC[C@H]3C(=O)N(C)CC(=O)N(C)[C@@H](C(C)C)C(=O)O[C@@H]2C)c(N)c1=O [Actinomycin D, reference compound] (I: T[dV]P[Sar][NMeV] / II: T[dV]P[Sar][NMeV]; ester I:1-I:C, II:1-II:C; linker I:N-II:N via Actinocin(9to1)) | 37.8 ± 1.3 | IC50 (EGFR-TK): 0.04 ± 0.03 µM; viability at 1 µM (MCF-7 cells; MCF7, 48 h): 30.7%; %Early Apoptosis (Q4) (MCF-7 cells; MCF-7 cells, 1 µM, 48 h): 3.4%; %Late Apoptosis (Q2) (MCF-7 cells; MCF-7 cells, 1 µM, 48 h): 61.4%; %Necrosis (Q1) (MCF-7 cells; MCF-7 cells, 1 µM, 48 h): 4.5%

Row | Structure (SMILES) | IC50 (tubulin) [µM] | melting point [°C] | IC50 (MCF-7 cell line; Homo sapiens, MCF7, 48 h) [µM] | other results
25 | O=C(/C=C/c1ccc(OC(F)(F)F)cc1)c1cc(Br)cc2cc(-c3ccc(F)cc3)oc12 [3j] | 0.00885 |  |  | IC50 (MCF-7 cell line; [1]): 16 ± 0.62 µM
26 | O=C(/C=C/c1ccc(OC(F)(F)F)cc1)c1cc(Br)cc2cc(-c3cccc(Cl)c3)oc12 [3t] | 2.83 |  |  | IC50 (MCF-7 cell line; [1]): 26.6 ± 0.27 µM

From publication PMC6164331, “Synthesis, Evaluation for Cytotoxicity and Molecular Docking Studies of Benzo[c]furan-Chalcones for Potential to Inhibit Tubulin Polymerization and/or EGFR-Tyrosine Kinase Phosphorylation” (International Journal of Molecular Sciences, 2018)
